The target in the first test is recombinant human AMPK complex 1 (containing α1β1γ1) (Homo sapiens, UniProt Q13131+Q9Y478). Nature of the test: In vitro AMPK activation assay ([…]). The settings on record: recombinant human AMPK complex 1 (α1β1γ1); basal activity subtracted, expressed as % maximum AMP activation. The format is biochemical. As for the experimental part:
The recombinant human AMPK complex 1 (containing α1β1γ1) was obtained from baculovirus expression system. Recombinant viruses were generated by cotransfection of AMPK/pBacPak9 clones with Baculogold baculovirus DNA (Pharmingen) in spodoptera frugiperda 21 cells according to the manufacturer's instructions. Each round of virus amplification was performed for 5 days in Grace's medium containing 10% serum. Virus that had been subjected to three rounds of amplification was used for all protein production procedures. To express the AMPK complex, sf21 cells were adapted to serum free medium (SF900 II, Invitrogen) by sequential dilution from serum containing stocks into SF900II medium and maintained in shaker flasks at 90 rpm at 27° C. The recombinant AMPK enzyme complex was produced by triple infection, one recombinant virus for each of the subunits, in sf21 cells under serum free conditions. Cells were infected in log phase, 1×10^6 cells/ml, at a multiplicity of infection of ˜5. Cells were harvested by centrifugation at 10,000×g for 15 minutes after 72 hours of infection with viruses. The insect cell pellet from 2 liters of culture was resuspended in 50 ml lysis buffer (20 mM Tris-HCl, 50 mM NaCl, 50 mM NaF, 30 mM Na PPi, 0.25 M sucrose, 10 mM ZnCl2, 2 mM DTT, 0.4 mg/ml digitonin) and subjected to two cycles of freeze-thaw lysis in a dry-ice ethanol bath. Insoluble material was removed by centrifugation at 10,000×g and the supernatant was fractionated with use of polyethylene glycol (PEG). The protein fraction precipitating between 2.5 and 6% PEG was used for further purification using a Blue-Sepharose step (Zhou et al, J. Clin. Invest. 108, 1167-1174, 2001).
The total in vitro AMPK activation assay volume is 50 μl in a 96-well plate. The reaction mixture contained 100 μM ATP (0.5 μCi ^33P-ATP per reaction), and 50 μM SAMS ([…]) in a buffer (20 mM HEPES, pH 7.0, 5 mM MgCl2, 0.01% Brij35). The reaction was initiated with addition of the enzyme. After 30-minute incubation at 30° C., the reaction was stopped by addition of 80 μl 1% H3PO4. Aliquots (100 μl) were transferred to 96-well MultiScreen plates (MAPHNOB50; Millipore Corp., Bedford, Mass., USA). The plate was washed three times with 1% H3PO4 followed by detection in a Top-count. The counts per minute from the basal activity (the reaction without activator) was subtracted from each well and the data were expressed as % maximum AMP activation followed by EC50 calculation.
Sequence of recombinant human AMPK complex 1 (containing α1β1γ1) (Q13131 whole entry): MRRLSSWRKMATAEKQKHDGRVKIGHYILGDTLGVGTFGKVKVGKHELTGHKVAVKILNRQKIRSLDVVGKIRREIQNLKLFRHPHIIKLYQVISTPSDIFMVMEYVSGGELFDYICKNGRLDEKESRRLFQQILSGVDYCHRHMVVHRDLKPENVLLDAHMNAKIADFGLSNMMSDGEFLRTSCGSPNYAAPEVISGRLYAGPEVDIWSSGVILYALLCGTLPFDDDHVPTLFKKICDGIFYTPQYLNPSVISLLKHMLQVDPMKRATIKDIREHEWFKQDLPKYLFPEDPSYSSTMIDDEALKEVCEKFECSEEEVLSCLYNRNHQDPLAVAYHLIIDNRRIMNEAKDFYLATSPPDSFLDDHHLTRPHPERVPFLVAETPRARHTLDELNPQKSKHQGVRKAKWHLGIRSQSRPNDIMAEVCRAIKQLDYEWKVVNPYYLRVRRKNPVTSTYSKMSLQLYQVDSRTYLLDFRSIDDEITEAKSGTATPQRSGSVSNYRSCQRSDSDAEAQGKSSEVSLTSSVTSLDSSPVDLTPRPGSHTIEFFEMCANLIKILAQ
Sequence of recombinant human AMPK complex 1 (containing α1β1γ1) (Q9Y478 whole entry): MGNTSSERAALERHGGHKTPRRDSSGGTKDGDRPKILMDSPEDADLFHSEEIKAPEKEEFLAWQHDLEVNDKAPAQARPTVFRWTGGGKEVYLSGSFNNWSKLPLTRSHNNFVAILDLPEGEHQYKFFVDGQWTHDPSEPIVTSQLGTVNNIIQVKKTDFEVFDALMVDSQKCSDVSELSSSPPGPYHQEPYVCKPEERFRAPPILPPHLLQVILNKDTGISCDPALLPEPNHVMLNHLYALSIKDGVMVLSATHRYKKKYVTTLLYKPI
Sequence of recombinant human AMPK complex 1 (containing α1β1γ1) (P54619 whole entry partner): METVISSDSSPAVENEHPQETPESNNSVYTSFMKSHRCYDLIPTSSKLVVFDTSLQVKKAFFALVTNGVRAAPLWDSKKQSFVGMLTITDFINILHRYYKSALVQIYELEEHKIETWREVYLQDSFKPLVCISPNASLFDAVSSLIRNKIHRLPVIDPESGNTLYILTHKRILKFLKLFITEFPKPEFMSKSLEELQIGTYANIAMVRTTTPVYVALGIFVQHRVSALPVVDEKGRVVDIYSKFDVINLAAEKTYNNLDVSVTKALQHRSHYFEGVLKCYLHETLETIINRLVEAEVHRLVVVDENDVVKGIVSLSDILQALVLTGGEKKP
In the case of `COc1cccc(C#Cc2cc3nc(SCC(=O)O)[nH]c3cc2Cl)c1` [Example 32, [6-chloro-5-(3-methoxy-phenyl-ethynyl)-1H-benzoimidazol-2-ylsulfanyl]-acetic acid], the Emax was greater than 40%.

As to `O=C(O)CSc1nc2cc(C#Cc3ccc(Oc4ccccc4)cc3)c(Cl)cc2[nH]1` [Example 33, [6-Chloro-5-(4-phenoxy-phenylethynyl)-1H-benzoimidazol-2-ylsulfanyl]-acetic acid], the Emax was greater than 40%.

Turning to `O=C(O)CSc1nc2cc(C#Cc3ccc(-c4ccccc4)cc3)c(Cl)cc2[nH]1` [Example 34, (5-biphenyl-4-ylethynyl-6-chloro-1H-benzoimidazol-2-ylsulfanyl)-acetic acid], the Emax was greater than 40%.

As to `O=C(O)CSc1nc2cc(C#CC3CCCC3)c(Cl)cc2[nH]1` [Example 35, (6-chloro-5-cyclo-pentylethynyl-1H-benzo-imidazol-2-yl-sulfanyl)-acetic acid], the Emax is greater than 40%. As for `CCc1ccc(C#Cc2cc3nc(SCC(=O)O)[nH]c3cc2Cl)cc1` [Example 36, [6-chloro-5-(4-ethyl-phenyl-ethynyl)-1H-benzo-imidazol-2-yl-sulfanyl]-acetic acid], the maximal response (Emax) was greater than 40%. Regarding `COc1ccc2cc(C#Cc3cc4nc(SCC(=O)O)[nH]c4cc3Cl)ccc2c1` [Example 37, [6-chloro-5-(6-methoxy-naphthalen-2-yl-ethynyl)-1H-benzo-imidazol-2-yl-sulfanyl]-acetic acid], the Emax is greater than 40%. As to `O=C(O)CSc1nc2cc(C#Cc3cccs3)c(Cl)cc2[nH]1` [Example 38, (6-chloro-5-thiophen-2-yl-ethynyl-1H-benzo-imidazol-2-yl-sulfanyl)-acetic acid], the Emax is greater than 40%. For `COc1ccc(C#Cc2cc3nc(SCC(=O)O)[nH]c3cc2Cl)cc1` [Example 39, [6-chloro-5-(4-methoxy-phenyl-ethynyl)-1H-benzimidazol-2-ylsulfanyl]-acetic acid], the Emax was greater than 40%. For `O=C(O)CSc1nc2cc(-c3ccc(OCc4ccccc4)c(F)c3)c(Cl)cc2[nH]1` [Example 40, [5-(4-Benzyloxy-3-fluoro-phenyl)-6-chloro-1H-benzimidazol-2-ylsulfanyl]-acetic acid], the maximal effect (Emax) was greater than 40%. Regarding `O=C(O)CSc1nc2cc(-c3ccc(Cl)cc3)c(Cl)cc2[nH]1` [Example 41, [6-chloro-5-(4-chloro-phenyl)-1H-benzimidazol-2-ylsulfanyl]-acetic acid], the maximal effect (Emax) is greater than 40%. For the compound `COc1ccc(-c2cc3nc(SCC(=O)O)[nH]c3cc2Cl)cc1` [Example 42, [6-chloro-5-(4-methoxy-phenyl)-1H-benzimidazol-2-ylsulfanyl]-acetic acid], the Emax is greater than 40%. Take `CC(C)Cc1ccc(-c2cc3nc(SCC(=O)O)[nH]c3cc2Cl)cc1` [Example 43, [6-chloro-5-(4-isobutyl-phenyl)-1H-benzimidazol-2-ylsulfanyl]-acetic acid]: the maximum response (Emax) was greater than 40%. On to `O=C(O)CSc1nc2cc(-c3ccc(OCc4ccccc4)cc3)c(Cl)cc2[nH]1` [Example 44, [5-(4-benzyl-oxy-phenyl)-6-chloro-1H-benzimidazol-2-ylsulfanyl]-acetic acid], for which the maximum response (Emax) is greater than 40%.

Consider `CC(C)(COc1nc2cc(C#Cc3ccccc3)c(Cl)cc2[nH]1)C(=O)O` [Example 49, 3-(6-Chloro-5-phenylethynyl-1H-benzoimidazol-2-yloxy)-2,2-dimethyl-propionic acid], for which the Emax was greater than 40%. Take `O=C(O)CCc1nc2cc(-c3ccccc3)c(Cl)cc2[nH]1` [Example 50, 3-(6-Chloro-5-phenyl-1H-benzimidazol-2-yl)-propionic acid]: the Emax is greater than 40%. For the compound `O=C(O)CCc1nc2cc(-c3ccc(-c4ccccc4)cc3)c(Cl)cc2[nH]1` [Example 51, 3-(5-Biphenyl-4-yl-6-chloro-1H-benzimidazol-2-yl)-propionic acid], the maximum response (Emax) is greater than 40%. The same measure, in the same setting: in the case of `O=C(O)CSc1nc2cc(C#Cc3cccnc3)c(Cl)cc2[nH]1` [Example 56] it was greater than 40%; in that of `O=C(O)CSc1nc2cc(C#Cc3ccccn3)c(Cl)cc2[nH]1` [Example 57], greater than 40%.

Turning to `O=C(O)CSc1nc2cc(-c3ccc(-c4ccccc4)s3)c(Cl)cc2[nH]1` [Example 58], the Emax is greater than 40%.

Take `O=C(O)CSc1nc2cc(-c3ccc(N4CCCCC4)cc3)c(Cl)cc2[nH]1` [Example 60]: the Emax was greater than 40%. On to `O=C(O)CSc1nc2cc(-c3ccc(N4CCOCC4)cc3)c(Cl)cc2[nH]1` [Example 61], for which the maximal effect (Emax) is greater than 40%. Consider `O=C(O)CSc1nc2cc(-c3ccc(N4CCOCC4)nc3)c(Cl)cc2[nH]1` [Example 62], for which the Emax is greater than 40%. With `O=C(O)CSc1nc2cc(-c3cc4ccccc4s3)c(Cl)cc2[nH]1` [Example 63], the Emax was greater than 40%. As for `O=C(O)CSc1nc2cc(C#Cc3ccc(C(F)(F)F)cc3)c(Cl)cc2[nH]1` [Example 65], the Emax was greater than 40%. Consider `O=C(O)CSc1nc2cc(C#Cc3ccc(Cl)cc3)c(Cl)cc2[nH]1` [Example 67], for which the maximum response (Emax) was greater than 40%. Consider `O=C(O)CSc1nc2cc(C#Cc3ccc(Br)cc3)c(Cl)cc2[nH]1` [Example 68], for which the maximum response (Emax) was greater than 40%. For the compound `O=C(O)CSc1nc2cc(C#Cc3cc(F)cc(F)c3)c(Cl)cc2[nH]1` [Example 69], the maximal effect (Emax) is greater than 40%. Regarding `O=C(O)CSc1nc2cc(C#Cc3ccccc3[N+](=O)[O-])c(Cl)cc2[nH]1` [Example 70], the maximum response (Emax) is greater than 40%.

On to `O=C(O)CSc1nc2cc(-c3cccc(N4CCOCC4)n3)c(Cl)cc2[nH]1` [Example 71], for which the maximal effect (Emax) was greater than 40%.

Take `O=C(O)CSc1nc2cc(-c3csc(-c4ccccc4)n3)c(Cl)cc2[nH]1` [Example 72]: the Emax is greater than 40%. For `O=C(O)CSc1nc2cc(-c3ccc(-c4cnccn4)cc3)c(Cl)cc2[nH]1` [Example 73], the Emax was greater than 40%.

As to `CCc1ccc(C(=O)Cc2cc3nc(SCC(=O)O)[nH]c3cc2Cl)cc1` [Example 74], the Emax was greater than 40%. Same read-out and setting: next, `O=C(O)CSc1nc2cc(C#Cc3ccc(C(=O)O)cc3)c(Cl)cc2[nH]1` [Example 75]: greater than 40%; `CC(=O)Nc1ccc(C#Cc2cc3nc(SCC(=O)O)[nH]c3cc2Cl)cc1` [Example 76]: greater than 40%. Still for that read-out and setting: next, `CS(=O)(=O)Nc1ccc(C#Cc2cc3nc(SCC(=O)O)[nH]c3cc2Cl)cc1` [Example 77]: greater than 40%; `CCNC(=O)Nc1ccc(C#Cc2cc3nc(SCC(=O)O)[nH]c3cc2Cl)cc1` [Example 78]: greater than 40%; `O=C(O)CSc1nc2cc(-c3ccc(Br)cc3)c(Cl)cc2[nH]1` [Example 79]: greater than 40%. Still for that read-out and setting: next, `O=C(O)CSc1nc2cc(-c3ccc(C(F)(F)F)cc3)c(Cl)cc2[nH]1` [Example 81]: greater than 40%; `CN(C)C(=O)c1ccc(C#Cc2cc3nc(SCC(=O)O)[nH]c3cc2Cl)cc1` [Example 82]: greater than 40%. With `CNC(=O)c1ccc(C#Cc2cc3nc(SCC(=O)O)[nH]c3cc2Cl)cc1` [Example 83], the maximum response (Emax) is greater than 40%. As to `CSc1ccc(-c2cc3nc(SCC(=O)O)[nH]c3cc2Cl)cc1` [Example 84], the Emax was greater than 40%.

With `Cc1cc(-c2cc3nc(SCC(=O)O)[nH]c3cc2Cl)ccc1Cl` [Example 85], the maximal response (Emax) is greater than 40%.

Staying with this test, now noted: recombinant human AMPK complex 1 (α1β1γ1); read-out: EC50.
As to `O=C(O)COc1nc2cc(-c3ccc(-c4ccn[nH]4)cc3)c(Cl)cc2[nH]1` [Example 45, {6-Chloro-5-[4-(2H-pyrazol-3-yl)-phenyl]-1H-benzoimidazol-2-yloxy}-acetic acid], the EC50 stood at 0.16 µM. Regarding `O=C(O)COc1nc2cc(-c3ccc(-c4ccccc4)cc3)c(Cl)cc2[nH]1` [Example 46, [(5-biphenyl-4-yl-6-chloro-1H-benzimidazol-2-yl)oxy]ylacetic acid], the concentration for a half-maximal effect (EC50) came out at 0.128 µM. Regarding `O=C(O)COc1nc2cc(C#Cc3ccc(CO)cc3)c(Cl)cc2[nH]1` [Example 47], the EC50 worked out at 0.097 µM. On to `O=C(O)COc1nc2cc(C#Cc3ccccc3)c(Cl)cc2[nH]1` [Example 48, (6-Chloro-5-phenylethynyl-1H-benzoimidazol-2-yloxy)-acetic acid], for which the concentration giving a half-maximal response (EC50) is 0.13 µM. `Cn1ccc2cc(-c3cc4nc(SCC(=O)O)[nH]c4cc3Cl)ccc21` [Example 59]: the 50% effective concentration (EC50) was 0.1 µM. On to `O=C(O)CSc1nc2cc(-c3ccc4[nH]ccc4c3)c(Cl)cc2[nH]1` [Example 66], for which the EC50 was determined as 0.282 µM.

As a reminder, the Emax is the maximal effect, on the per cent scale that the assay sets. By EC50 is commonly meant the concentration giving half of the maximal effect.

The record behind these values is US8563746B2, “Cyclic benzimidazole derivatives useful as anti-diabetic agents” (Merck Sharp & Dohme Corp, priority 2008, dated 2013).
